Laboratory results as given in ChEMBL document CHEMBL1201862, “PubChem BioAssay data set” (2004).
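Each compound was tested at five concentrations against cells in 96-well plates for 48 hours. At the GI50, growth is halved.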 Calls of active or inactive are those of the source. Cut-off read from the data, not from the text of the source: active = GI50 up to about 1.1 µM and inactive = higher.

How the values were obtained:
Test in all cases: NCI-60 cell line screen, 48 h
[1] = test system: CCRF-CEM
[2] = test system: HCC 2998
[3] = test system: HCT-116
[4] = test system: LXFL 529
[5] = test system: MOLT-4
[6] = test system: Malme-3M
[7] = test system: NCI-H460
[8] = test system: RPMI-8226
[9] = test system: RXF 393
[10] = test system: SF-268
[11] = test system: SK-MEL-28
[12] = test system: SK-MEL-5
[13] = test system: SN12C
[14] = test system: SNB-19
[15] = test system: SR
[16] = test system: SW-620
[17] = test system: UACC-257
[18] = test system: BT-549
[19] = test system: MCF7
[20] = test system: T47D

Compound	GI50 [1]	GI50 [2]	GI50 [3]	GI50 [4]	GI50 [5]	GI50 [6]	GI50 [7]	GI50 [8]	GI50 [9]	GI50 [10]	GI50 [11]	GI50 [12]	GI50 [13]	GI50 [14]	GI50 [15]	GI50 [16]	GI50 [17]	GI50 [18]	GI50 [19]	GI50 [20]
O=C(O)CCC(=O)N1C/C(=C\c2ccccc2)C(=O)/C(=C/c2ccccc2)C1	1.03 µM (active)	2.17 µM (inactive)	1.75 µM (inactive)	2.67 µM (inactive)	2.34 µM (inactive)	2.33 µM (inactive)	8.22 µM (inactive)	2.42 µM (inactive)	3.67 µM (inactive)	2.48 µM (inactive)	1.97 µM (inactive)	2.65 µM (inactive)	1.93 µM (inactive)	3.16 µM (inactive)	0.59 µM (active)	1.58 µM (inactive)	2.29 µM (inactive)	–	–	–
C/C(=N\NC(=N)N)C(CN(C)C)C(c1ccccc1)c1c(O)c2ccccc2oc1=O (configuration not stated)	> 100 µM (inactive)	> 100 µM (inactive)	> 100 µM (inactive)	> 100 µM (inactive)	> 100 µM (inactive)	> 100 µM (inactive)	> 100 µM (inactive)	> 100 µM (inactive)	–	> 100 µM (inactive)	> 100 µM (inactive)	> 100 µM (inactive)	> 100 µM (inactive)	> 100 µM (inactive)	> 100 µM (inactive)	> 100 µM (inactive)	> 100 µM (inactive)	72.9 µM (inactive)	> 100 µM (inactive)	4.62 µM (inactive)
BrCC[N+]12CCCN1CCC2	1.59 µM (inactive)	22.3 µM (inactive)	5.66 µM (inactive)	2.88 µM (inactive)	3.43 µM (inactive)	2.32 µM (inactive)	22.3 µM (inactive)	1.53 µM (inactive)	14 µM (inactive)	24.9 µM (inactive)	10.7 µM (inactive)	18 µM (inactive)	14.7 µM (inactive)	> 43 µM (inactive)	1.68 µM (inactive)	2.28 µM (inactive)	18.7 µM (inactive)	14.4 µM (inactive)	–	9.93 µM (inactive)
Cc1ccc(NC(=O)C(=O)C2C(=O)NC(=O)NC2=O)cc1C	> 100 µM (inactive)	> 100 µM (inactive)	> 100 µM (inactive)	> 100 µM (inactive)	> 100 µM (inactive)	> 100 µM (inactive)	> 100 µM (inactive)	> 100 µM (inactive)	> 100 µM (inactive)	> 100 µM (inactive)	> 100 µM (inactive)	> 100 µM (inactive)	> 100 µM (inactive)	> 100 µM (inactive)	> 100 µM (inactive)	> 100 µM (inactive)	> 100 µM (inactive)	–	–	–
